# Patent US5451397A, “Bile acid sequestrant” (priority 1992, dated 1995)
# Tested on: Chinese hamster ovary (CHO) cell cultures
# Type: cell-based
# Description: A suspension of particles of the sequestrant in deionized water was prepared. The suspension was serially diluted into serumless culture medium. The most concentrated suspension tested was 1000 micrograms sequestrant per milliliter suspension (μg/ml). Exponentially growing Chinese hamster ovary (CHO) cell cultures were treated with the sequestrant dilutions for three hours. The cultures were gently rocked on a rocker platform during treatment in an attempt to maintain a uniform suspension over the cells for the entire treatment period. Negative controls i.e., CHO cell cultures treated with serumless culture medium, and solvent controls, i.e., CHO cell cultures treated with 1% deionized water in serumless culture medium, were included. Treatment was terminated by washing the cultures twice with Dulbecco's phosphate buffered saline and cells were allowed to recover in McCoy's 5A medium containing 10% fetal bovine serum for 0, 5 or 21 hours, i.e., 3, 8 or 24 hours from the beginning of treatment. […] The harvested cells were counted by Coulter counter to determine relative reductions in cell numbers. At selected doses, Trypan blue exclusion counts were conducted using a hemacytometer to determine cell viability to control for the possibility that some dead cells may have been counted with the Coulter counter. […]
substance,measurement,value
poly(dimethylaminopropylmethacrylamide) [Comparative Example C1],ED50 (dosage effective to kill 50% of the cells),10.0 µg/mL
